Results published in ChEMBL document CHEMBL1201862, “PubChem BioAssay data set” (2004).
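Five concentrations, 48 hours, 96-well plates. GI50 = concentration required for 50% inhibition of growth.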 The source made the active and inactive calls. Rule as the data show it: active = GI50 up to about 1.1 µM and inactive = higher.

Legend:
Assay in all cases: NCI tumour cell line growth inhibition, 48 h
[1] = tested on: A549
[2] = tested on: DU-145
[3] = tested on: HOP-92
[4] = tested on: IGROV-1
[5] = tested on: LOX IMVI
[6] = tested on: MCF7
[7] = tested on: MDA-MB-231
[8] = tested on: MDA-MB-435
[9] = tested on: NCI-H23
[10] = tested on: NCI/ADR-RES
[11] = tested on: OVCAR-3
[12] = tested on: PC-3
[13] = tested on: SK-MEL-2
[14] = tested on: SK-OV-3
[15] = tested on: SNB-19
[16] = tested on: SR
[17] = tested on: SW-620
[18] = tested on: T47D
[19] = tested on: UACC-62
[20] = tested on: Malme-3M

SMILES	GI50 [1]	GI50 [2]	GI50 [3]	GI50 [4]	GI50 [5]	GI50 [6]	GI50 [7]	GI50 [8]	GI50 [9]	GI50 [10]	GI50 [11]	GI50 [12]	GI50 [13]	GI50 [14]	GI50 [15]	GI50 [16]	GI50 [17]	GI50 [18]	GI50 [19]	GI50 [20]
Cc1cc(S(=O)(=O)Nc2nc3ccccc3[nH]2)c(S)cc1Cl	45.2 µM (inactive)	> 100 µM (inactive)	62.5 µM (inactive)	61.5 µM (inactive)	19.3 µM (inactive)	71 µM (inactive)	58.6 µM (inactive)	49.8 µM (inactive)	67.9 µM (inactive)	> 100 µM (inactive)	49.2 µM (inactive)	46.6 µM (inactive)	30.9 µM (inactive)	> 100 µM (inactive)	72.3 µM (inactive)	38.2 µM (inactive)	37.6 µM (inactive)	41.4 µM (inactive)	79.4 µM (inactive)	–
O=C(O)CCCCn1ccc(=O)[nH]c1=O	> 100 µM (inactive)	> 100 µM (inactive)	–	> 100 µM (inactive)	> 100 µM (inactive)	> 100 µM (inactive)	> 100 µM (inactive)	> 100 µM (inactive)	> 100 µM (inactive)	> 100 µM (inactive)	> 100 µM (inactive)	> 100 µM (inactive)	> 100 µM (inactive)	> 100 µM (inactive)	> 100 µM (inactive)	> 100 µM (inactive)	> 100 µM (inactive)	> 100 µM (inactive)	> 100 µM (inactive)	> 100 µM (inactive)
COc1cc2c(/C=C3/C(=O)Nc4cccc(Cl)c43)c(Cl)[nH]c2cc1C	2.09 µM (inactive)	1.88 µM (inactive)	8.17 µM (inactive)	1.59 µM (inactive)	1.8 µM (inactive)	2.05 µM (inactive)	1.08 µM (active)	1.57 µM (inactive)	2.51 µM (inactive)	1.65 µM (inactive)	1.6 µM (inactive)	2.68 µM (inactive)	3.05 µM (inactive)	2.21 µM (inactive)	2.14 µM (inactive)	1.41 µM (inactive)	2.24 µM (inactive)	1.43 µM (inactive)	1.95 µM (inactive)	–
CCOC(=O)c1cc2c(OC)cc(OC)cc2oc1=O	> 100 µM (inactive)	> 100 µM (inactive)	46.8 µM (inactive)	> 100 µM (inactive)	5.58 µM (inactive)	> 100 µM (inactive)	35.9 µM (inactive)	> 100 µM (inactive)	63.8 µM (inactive)	> 100 µM (inactive)	> 100 µM (inactive)	> 100 µM (inactive)	> 100 µM (inactive)	–	41.8 µM (inactive)	> 100 µM (inactive)	> 100 µM (inactive)	> 100 µM (inactive)	> 100 µM (inactive)	> 100 µM (inactive)
COC(=O)C1CCC(=S)N1C(=O)OCc1ccccc1 (centres undefined)	71 µM (inactive)	> 100 µM (inactive)	> 100 µM (inactive)	> 100 µM (inactive)	–	88.3 µM (inactive)	> 100 µM (inactive)	> 100 µM (inactive)	> 100 µM (inactive)	> 100 µM (inactive)	78.3 µM (inactive)	> 100 µM (inactive)	> 100 µM (inactive)	> 100 µM (inactive)	> 100 µM (inactive)	> 100 µM (inactive)	83.2 µM (inactive)	> 100 µM (inactive)	> 100 µM (inactive)	> 100 µM (inactive)
N#Cc1c(-c2nc3ccccc3s2)c(=O)oc2cc(O)ccc12	26.9 µM (inactive)	22.6 µM (inactive)	3.52 µM (inactive)	15.3 µM (inactive)	28.6 µM (inactive)	34.5 µM (inactive)	22.9 µM (inactive)	27.8 µM (inactive)	24.8 µM (inactive)	32.4 µM (inactive)	2.25 µM (inactive)	34.4 µM (inactive)	49.7 µM (inactive)	–	46 µM (inactive)	37.3 µM (inactive)	30.8 µM (inactive)	17.7 µM (inactive)	> 100 µM (inactive)	18.3 µM (inactive)
